In US20240025856A1, “1,2,3,4-TETRAHYDROQUINOLINE DERIVATIVES AS INHIBITORS OF THE YAP/TAZ-TEAD ACTIVATION FOR TREATING CANCER” (KATHOLIEKE UNIVERSITEIT LEUVEN, priority 2020, published 2024):

Assays:
[1] = system: YAP/TAZ-TEAD transcription; assay: Reporter gene assay for measuring the inhibition of YAP/TAZ-TEAD transcription (TEAD-responsive element luciferase reporter in Hek293T cells); format: cell-based; settings: Homo sapiens, HEK-293T, 24 h, Hek293T cells transiently transfected with TEAD-responsive element luciferase reporter; 24 hours incubation
Method in brief: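 Hek293T cells transiently transfected with a TEAD-responsive element luciferase reporter, plated onto pre-diluted compounds and incubated 24 h at 37 °C/5% CO2. Luminescence read after SteadyLite addition; % inhibition from RLU relative to vehicle (0%) and a positive control inhibitor (100%), giving IC50.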

NCI-1H2052 = assay: Mesothelioma cell line proliferation assay, H2052 (ATPlite); format: cell-based; settings: Homo sapiens, NCI-H2052, 144 h, 6 days with compound, read-out: H2025 (EC50)
Description: (§1) Mesothelioma cell lines, NCI-1H226 and NCI-1H2052 (all sourced from the ATCC cell culture collection) are plated in 96-well plates (Corning® 96 Well White Polystyrene Microplate clear flat bottom, white polystyrene (TC-Treated)), at 1500 cells/well in full medium (RPMI 1640 ATCC modification with L-glutamine, HEPES, Phenol Red, Sodium Pyruvate, High glucose, Low sodium bicarbonate and 10% fetal bovine serum). Cells are incubated overnight at 37° C. in an incubator with 5% C02. Then compounds, dissolved in DMSO, are added in dose-response. Cells are incubated with compound dilutions for another 6 days at 37° C. in an incubator with 5% C02. Cell viability is quantitated using the ATPlite kit (Perkin-Elmer) and the luminescence is read-out using an Envision instrument (Perkin-Elmer). The amount of relative light units produced using the ATPlite kit is used to calculated percent of inhibition.
(§2) The activities of some example compounds are depicted in the table below. The activity ranges A, B and C refer to EC50 values in the mesothelioma cell line proliferation assay as described as follows: “A”: EC50<1 μM; “B”: 1 μM s EC50≤10 μM and “C”: EC50≥10 μM; NT: not tested.

NCI-1H226 = assay: Mesothelioma cell line proliferation assay, H226 (ATPlite); format: cell-based; settings: Homo sapiens, NCI-H226, 144 h, 6 days with compound
Description: as §1, §2

NCI-H226 tumor cells = assay: In vivo efficacy in a subcutaneous human lung cancer xenograft model (NCI-H226 mesothelioma); parameters: species or system Female BALB/c Nude Mice; settings: 100 mg/kg, p.o., BID × 21 days
Description: The NCI-H226 tumor cells were maintained in vitro with RPMI-1640 medium supplemented with 10% fetal bovine serum at 37° C. in an atmosphere of 5% CO2 in air. The cells in exponential growth phase were harvested and the cell numbers were quantitated by hemocytometer and cell viability was quantified by Trypan Blue counting before tumor inoculation. Balb/c nude mouse were inoculated with subcutaneously in the right front flank regions with 1×10^7 of NCI-H226 tumor cells in 0.1 mL of PBS mixed with 0.1 ml of Matrigel (1:1) for tumor development. All animals were randomized based on the tumor sizes as well as body weights and randomly allocated to the different study groups (8 mice per group). The randomization started when the mean tumor size at the right rear flank region had reached approximately 172 mm^3. The date of randomization was denoted as Day 0.
Cpd. No. 084 was formulated in Vehicle 1 (PEG400 (40%)+PG (30%)+WFI (30%)) as a 10 mg/ml solution, and dosed orally, twice daily, using 10 μl/g (final dose is 100 mg/kg) for 21 days. Cpd. No. 001 was formulated in Vehicle 2 (PEG400 (65%)+PG (20%)+WFI (15%)) as a 10 mg/ml solution, and dosed orally, twice daily, using 10 μl/g (final dose is 100 mg/kg) for 21 days. After tumor cell inoculation, the animals were checked daily for morbidity and mortality. At the time of routine monitoring, the animals were checked for any effects of tumor growth and treatments on behavior such as mobility, food and water consumption, body weight gain/loss (body weight was measured at least two times per week), and any other abnormalities. Mortality and observed clinical signs were recorded for individual animals. Tumor volumes were measured at least two times weekly in two dimensions using a caliper, and the volume was expressed in mm^3 using the formula: V=(L×W×W)/2, where V is tumor volume, L is tumor length (the longest tumor dimension) and W is tumor width (the longest tumor dimension perpendicular to L).
Tumor growth inhibition (TGI) was used as an indicator of antitumor activities, and was calculated from the relative tumor volumes of the control and treatment groups due to the variance of tumor volumes among groups at Day 0. TGI (%)=(1-T/C)×100%; T/C=MTVt/MTVc, MTVt: mean tumor volume in the treatment groups at a specific measurement day, MTVc: mean tumor volume in the control group at a specific measurement day. Moreover, the difference of TGIs between control and treatment groups was analyzed at a measurement day when all or most of the mice in the control groups were alive. In addition, body weight changes over time in each group were used as an index to evaluate the tolerability of test drugs, and were calculated from the average percentage of body weight changes of each individual mouse relative to their initial body weight at randomization using the following formula: group BW %=mean of ((BWt−BW0)/BW0×100%), BWt: body weight at Day t, BW0: body weight at Day 0.
To compare relative tumor volumes of different groups at a pre-specified day, we first used Bartlett's test to check the assumption of homogeneity of variance across all groups. When the p-value of Bartlett's test is >0.05, we run one-way ANOVA to test overall equality of means across all groups. If the p-value of the one-way ANOVA is <0.05, we further perform post hoc testing by running Tukey's HSD (honest significant difference) tests for all pairwise comparisons, and Dunnett's tests for comparing each treatment group with the vehicle group. When the p-value of Bartlett's test is <0.05, we run Kruskal-Wallis test to test overall equality of medians among all groups. If the p-value of the Kruskal-Wallis test is <0.05, we further perform post hoc testing by running Conover's non-parametric test for all pairwise comparisons or for comparing each treatment group with the vehicle group, both with single-step p-value adjustment. All tests were two-sided unless otherwise specified, and p-values<0.05 were regarded as statistically significant. […]

[2] = day 20, against the compound's own vehicle group

Compound	IC50 [1]	EC50 (NCI-1H2052)	EC50 (NCI-1H226)	anti-tumor activity in the xenograft mesothelioma model (NCI-H226 tumor cells)	Mean Tumor Volume (mm^3) on day 20 (NCI-H226 tumor cells; day 20, 8 mice per group)	T/C (%) (NCI-H226 tumor cells; [2])	TGI (%) (NCI-H226 tumor cells; [2])
C=CC(=O)NC1Cc2ccccc2N(c2ccc(C(F)(F)F)c(F)c2)C1 (stereo not drawn) [compound 028, N-(1-(3-fluoro-4-(trifluoromethyl)phenyl)-1,2,3,4-tetrahydroquinolin-3-yl)acrylamide]	< 1 µM	< 1 µM	< 1 µM	–	–	–	–
C=CC(=O)NCC1Cc2ccccc2N(c2ccc(C(F)F)nc2)C1 (stereo not drawn) [compound 149, N-((1-(6-(difluoromethyl)pyridin-3-yl)-1,2,3,4-tetrahydroquinolin-3-yl)methyl)acrylamide]	< 1 µM	1 to 10 µM	1 to 10 µM	–	–	–	–
C=CC(=O)NCC1Cc2ccccc2N(c2ccc(C(F)(F)F)cc2)C1 (stereo not drawn) [compound 084, N-((1-(4-(trifluoromethyl)phenyl)-1,2,3,4-tetrahydroquinolin-3-yl)methyl)acrylamide]	< 1 µM	–	< 1 µM	highly statistically significant and strong anti-tumor activity	165.82 ± 15.42 (8) mm^3	38.95%	61.05%
C=CC(=O)NC1Cc2ccccc2N(c2ccc(C#N)cc2)C1 (stereo not drawn) [compound 142, N-(1-(4-cyanophenyl)-1,2,3,4-tetrahydroquinolin-3-yl)acrylamide]	< 1 µM	< 1 µM	< 1 µM	–	–	–	–
C=CC(=O)NC1Cc2ncccc2N(c2ccc(C(F)(F)F)cc2)C1 (stereo not drawn) [compound 080, N-(1-(4-(trifluoromethyl)phenyl)-1,2,3,4-tetrahydro-1,5-naphthyridin-3-yl)acrylamide]	< 1 µM	< 1 µM	< 1 µM	–	–	–	–

Further lines, with some results ahead:

IC50 [1]	Compound	EC50 (NCI-1H2052)	EC50 (NCI-1H226)	anti-tumor activity in the xenograft mesothelioma model (NCI-H226 tumor cells)	Mean Tumor Volume (mm^3) on day 20 (NCI-H226 tumor cells; day 20, 8 mice per group)	T/C (%) (NCI-H226 tumor cells; [2])	TGI (%) (NCI-H226 tumor cells; [2])
< 1 µM	C=CC(=O)NCC1Cc2ccccc2N([C@H]2CC[C@H](C(F)(F)F)CC2)C1 (stereo partly drawn) [compound 143, trans-N-((1-(4-(trifluoromethyl)cyclohexyl)-1,2,3,4-tetrahydroquinolin-3-yl)methyl)acrylamide]	< 1 µM	< 1 µM	–	–	–	–
< 1 µM	C=CC(=O)NCC1Cc2c(N)cccc2N(c2ccc(C(F)(F)F)cc2)C1 (stereo not drawn) [Cpd. No. 153, N-((5-amino-1-(4-(trifluoromethyl)phenyl)-1,2,3,4-tetrahydroquinolin-3-yl)methyl)acrylamide]	< 1 µM	< 1 µM	–	–	–	–
< 1 µM	C=CC(=O)NC(C)C1Cc2ccccc2N(c2ccc(C(F)(F)F)cc2)C1 (stereo not drawn) [Cpd. No. 192, N-(1-(1-(4-(trifluoromethyl)phenyl)-1,2,3,4-tetrahydroquinolin-3-yl)ethyl)acrylamide]	< 1 µM	< 1 µM	–	–	–	–
